Laboratory results as given in ChEMBL document CHEMBL3507680, “University of Dundee, Gates Library screen for HepG2 cell viability”.
“And” between values parts separate entries of the source, which are not always exact repeats. Equal entries are not always repeated.

What was measured:
[1] = Human HepG2 cell viability dose-response assay; format: toxicity, cell-based
[2] = Human HepG2 cell viability assay in 384 well format; format: toxicity, cell-based; set-up: dose 125 nL, time 70.5 hour; concentration not given beside the values; details: HepG2 cells, read-out: Inhibition

Compound	BOTTOM [1]	HILLSLOPE [1]	TOP [1]	pXC50 [1]	cytotoxicity at 70.5 h [2] [%]
Cc1ccccc1CN1CCCC1c1cccc(Nc2nccs2)n1 (stereo not drawn)	-34.71 and -42.55	0.815 and 0.7597	100	6.34 and 6.398	70.5
CC(C)(C)c1nccc(C2(c3ccccc3Cl)CCNCC2)n1	9.625 and 4.047	4.667 and 5.549	104.8 and 103.4	5.031 and 5.028	78.4
CNc1cc(C2CN(Cc3scnc3C)CCO2)nc(C)n1 (stereo not drawn)	–	1.929 and 1.812	107.3 and 109.8	4.988 and 5.003	98.7
c1ccc(OCC2CC3(CCN(CC4CCOCC4)CC3)CO2)nc1 (stereo not drawn)	0	0	0	< 4.53	62.9
NC(CC1CCCC1)c1ccc(Oc2ccccc2)cc1 (stereo not drawn)	-5.453 and -5.719	5.268 and 5.002	102.6 and 103.1	5.226 and 5.224	99
C/N=C1/c2cc3cc(OC)ccc3n2CCN1Cc1ccccc1.Cl	-4.849 and -8.854	2.411 and 1.684	87.09 and 100	5.148 and 5.086	61.3
N#Cc1ccc(NCCNc2ccc(C(F)(F)F)cn2)nc1	-5.895 and -10.21	4.246 and 4.413	101.3 and 101.1	5.913 and 5.918	101
Cn1nccc1CN1CCOC(c2cccc(Nc3ccccn3)n2)C1 (stereo not drawn)	–	6.527 and 3.177	100.3 and 104.2	5.026 and 5.036	84.1
CC(C)Cc1ccc(S(=O)(=O)Nc2ccc(=O)n(C)c2)cc1	0	0	0	< 4.53	71.6
Cl.Cl.Clc1cccc(C[C@@H]2NCCC[C@@H]2Nc2ccccc2)c1	-6.539 and -3.827	13.96 and 17.86	101.8	5.306 and 5.329	104
CN(CCC(F)(F)F)C(=O)C1CSCN1C(=O)C(C)(C)C (stereo not drawn)	0	0	0	< 4.53	100
c1ccc(CCN2CCCC2c2cccc(Nc3nccs3)n2)cc1 (stereo not drawn)	-11.18 and -9.985	1.416 and 1.359	100	5.661 and 5.625	70.3
O=C(O)C(F)(F)F.O=C1COC2(CCN(CC3CCC3)CC2)CN1c1cncnc1	0	0	0	< 4.53	61.5
Oc1cc(C2CCCCN2Cc2cccs2)nc(-c2ccccn2)n1 (stereo not drawn)	-3.23 and -7.213	1.278 and 1.267	100	5.076 and 5.09	64.3
